From patent EP4140481A1, “PROTEIN-OLIGOMER BINDING AGENTS AND THERAPEUTIC USES THEREOF” (Galyan Bio, Inc., priority 2021, dated 2023)

What was measured:
phospho-Tau (Ser404) = target: T1, phospho-Tau (Ser404) (Mus musculus, UniProt P10637); test: Phospho-Tau (Ser404) immunocytochemistry in STHdh 7/7 cells; assay type: cell-based
T1 construct: host or cells: ST HDH Q7/7 mouse striatal cell line
Description: Effect of Compound 4 on Phospho-Tau (Ser396) levels - ST HDH Q7/7 (CH00097, Coriell Institute) striatal derived cell line from a knock in transgenic mouse containing HTT loci with a humanized Exon 1 containing 7 polyglutamine repeats. Diffuse mHTT quantified with immunocytochemistry as described in Example 33 with the exception that instead of 3B5H10 antibody for staining mHTT, phospho-Tau (Ser404) polyclonal antibody (ThermoFisher, Catalog 44-758G) was used to stain phospho-Tau (Ser396) and no heat shock was used.

A30P mutant α-Synuclein = target: T2, A30P mutant α-Synuclein (Homo sapiens, UniProt P37840, A30P); test: Dynamic Light Scattering (DLS), induced aggregation; assay type: biochemical
T2 construct: purchased rPeptide, Watkinsville, Georgia S-1005-2
Description: (§1) Proteins were ultracentrifuged with 50,000 rpm (rounds per minute) for one hour at 2 °C. The supernatant was used for DLS measurements. DLS measurements were conducted with Malvern Zetasizer Nano (Malvern Panalytical Ltd, United Kingdom).
A30P mutant α-Synuclein (catalog S-1005-2, rPeptide, Watkinsville, Georgia) was solved in 20 mM phosphate, pH 7.4 buffer.

Amyloid-β 1-40 (Ab40) = target: T3, Amyloid-β 1-40 (Ab40) (Homo sapiens, UniProt P05067); test: as above; assay type: biochemical; conditions: equimolar Compound 4
T3 construct: purchased rPeptide, Watkinsville, Georgia A-1153-2
T3 sequence (P05067 672-711): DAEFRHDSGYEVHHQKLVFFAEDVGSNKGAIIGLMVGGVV
Description: as §1
Amyloid-β 1-40 (Ab40) (catalog A-1153-2, rPeptide, Watkinsville, Georgia) Sequence
The aliquots of lyophilized Amyloid-β 1-40 (Ab40) peptide were hydrated at room temperature in 50 mM phosphate buffer pH 7.4 and 100 mM NaCl (Buffer 1)
The aliquots of lyophilized Ab peptide were hydrated at room temperature in 75 mM MOPS pH 7.4 and 2 mM CaCl2 (Buffer 2)

C. elegans = C. elegans growth and development (toxicity) assay; assay type: in vivo; conditions: doses 32nM to 500µM, hatching to first day of adulthood
Description: Delivery strategy: The indicated compound dosage is based on the total volume of the plates with the assumption that the water-soluble compound diffuses throughout the agar. The compound is dissolved in a working solution and then combined directly with the food bacteria before seeding on agar plates. The food spots are dried slowly, allowing the compound to diffuse into the food bacteria and the agar for 24 hours.
Growth and development assay results: High-resolution imaging and automated detection were used to precisely measure the growth rate of animals from hatching to the first day of adulthood (total of 4 days). The C. elegans growth and development assay is highly sensitive and widely used in toxicology studies. Performing this test over a range of doses helps to identify a set of doses that have a physiological impact and exclude dose ranges that are likely too toxic to benefit lifespan.

zebrafish larvae = test: Motility Zebrafish Model (MPP+ exposure, photomotor assay and sleep)
Description: Six groups were included in each experiment. Immediately after spawning, 40 embryos per group were allocated to a 24-well plate and system water (solvent) was added to all wells. […] MPP+ was prepared immediately prior to incubation and solutions were changed daily. At 120 hpf, drug treatment and MPP+ exposure was ceased and a 3X wash was performed with system water. Larvae were then relocated to 96-well plates for behavioral recording and placed in a separate recording room for 24-hour acclimation. Prior to behavioral recording, wells were fully replenished system water.
Naive group was exposed to solvent only. Vehicle group was exposed to solvent and vehicle corresponding to the vehicle of 20 µM drug solution (0.02% DMSO). MPP+ positive control was exposed to solvent and 500 µM MPP+.
Behavioral data was recorded from 1 p.m. on 6 dpf until shortly after wakening on 7 dpf. The recording consisted of a photomotor assay in which lights switch off and on in 30-minute intervals between 1 p.m. and 6 p.m., producing a consistent photomotor response. […] Upon lights being turned on again, the larvae cease movement followed by a return to baseline. This cycle is repeated five times. Following the last lights-off phase, constant illumination is presented until lights turn off at 10 p.m. for the night. Lights turn on again at 8 a.m. the following day.
Average movement frequency was measured during 30-minute lights-on phases of photomotor assay.
Distance moved (mm) was defined as the average distance moved during 30-minute lights-on phases of photomotor assay.
All data are presented as mean ± standard error of the mean (sem). For analysis of differences between groups, a Kruskal-Wallis one-way ANOVA with Dunn's multiple comparison post hoc test was performed. P < 0.05 was considered statistically significant.

[1] = Body weight in R6/2 mice of Huntington's disease; assay type: in vivo
Description: (§2) Methods ― Total of 20 female and male R6/2 mice and 10 female and male wild-type littermate control mice (WT) were used in the study. The mice were genotyped and the R6/2 mice were divided into different treatment groups based on their litter and baseline body weight. The treatment with Vehicle or Compound 22 (33 mg/kg; 5 ml/kg, i.p. QD) was started at 4 weeks of age after the baseline behavioral tests (Figure 6). Body weights were measured at 3 weeks of age and twice a week until the end of the study.
(§3) The experimental groups were: • Group 1) 10 wild-type mice (mixed gender) treated with Vehicle (5 ml/kg, i.p., QD) starting at 4 weeks of age • Group 2) 10 R6/2 mice (mixed gender) treated with Vehicle (5 ml/kg, i.p., QD) starting at 4 weeks of age • Group 3) 10 R6/2 mice (mixed gender) treated with Compound 22 (33 mg/kg; 5 ml/kg, i.p. QD) starting at 4 weeks of age
(§4) Compound Delivery and Dosing - Treatment with Compound 22 (33 mg/kg; 5 ml/kg, i.p. QD) or Vehicle was started at age week 4 and continued until the 12 weeks of age. The test articles were handled and stored and the dose formulations were prepared according to detailed instructions provided by the Sponsor.
Body Weight - Body weight was measured starting at 3 weeks of age before treatment onset and two times per week on the same day (on Monday and Friday) until the end of the study.

R6/2 mice = test: Rotarod in R6/2 mice of Huntington's disease; assay type: in vivo; conditions: for rotarod performance: 33 mg/kg i.p. QD
Description: as §2, §3, §4
Rotarod - The Rotarod test was perfomed at 4 (pre-treatment baseline), 6, 8 and 10 weeks of age. Each testing day included a training trial of 5 min at 4 RPM on the Rotarod apparatus (AccuScan Instruments, Columbus, USA). 30 minutes later, the animals were tested for 3 consecutive accelerating trials of 6 min with the speed changing from 0 to 40 RPM over 360 seconds and with an inter-trial interval of at least 30 min. The latency to fall from the rod was recorded. Mice remaining on the rod for more than 360 s were removed and their time scored as 360 sec.
[…] littermate control mice (F1 generation) were bred by Charles River Laboratories, Sulzfeld, Germany by mating (F0 generation) WT males (C57BL/6J; systematically re-infused with pedigreed JAX mice, stock 000664) with ovarian transferred (OT) TG females (JAX, stock 006494). After weaning mice were sent from Germany to Charles River, Kuopio, Finland at an age of 3 weeks. Following genotyping and acclimation, the mice were enrolled in the study.

[2] = by number, 100 µM equimolar Compound 4
[3] = by volume, 100 µM equimolar Compound 4
[4] = Buffer 1, Ab40 154 µM, 100% of Ab40
[5] = by intensity, Buffer2, Ab40 155 µM

T1 sequence (P10637 whole entry): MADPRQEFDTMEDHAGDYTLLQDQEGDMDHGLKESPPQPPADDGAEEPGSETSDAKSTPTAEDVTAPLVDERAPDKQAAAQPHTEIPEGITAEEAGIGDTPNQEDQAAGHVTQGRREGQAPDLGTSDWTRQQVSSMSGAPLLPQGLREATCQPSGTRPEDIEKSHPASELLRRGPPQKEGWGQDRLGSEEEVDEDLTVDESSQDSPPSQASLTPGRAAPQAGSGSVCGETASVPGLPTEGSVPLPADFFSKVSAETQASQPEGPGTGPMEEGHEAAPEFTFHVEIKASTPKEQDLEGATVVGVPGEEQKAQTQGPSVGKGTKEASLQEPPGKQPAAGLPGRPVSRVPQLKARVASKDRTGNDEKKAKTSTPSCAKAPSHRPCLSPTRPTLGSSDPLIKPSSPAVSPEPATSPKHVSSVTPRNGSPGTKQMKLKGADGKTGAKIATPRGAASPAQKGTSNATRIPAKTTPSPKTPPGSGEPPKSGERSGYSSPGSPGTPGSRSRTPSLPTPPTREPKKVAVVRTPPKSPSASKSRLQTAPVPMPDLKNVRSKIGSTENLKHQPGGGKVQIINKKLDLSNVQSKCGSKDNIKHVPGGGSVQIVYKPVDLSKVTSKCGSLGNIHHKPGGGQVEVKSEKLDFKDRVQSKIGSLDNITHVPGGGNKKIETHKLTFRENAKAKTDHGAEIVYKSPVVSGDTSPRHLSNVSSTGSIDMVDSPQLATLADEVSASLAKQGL

SMILES: CCc1c(C)[nH]c2ccc(C(=O)NCCN(CC)CC)cc12 [Compound 4, N-(2-(diethylamino)ethyl)-3-ethyl-2-methyl-1H-indole-5-carboxamide]
- Phospho-Tau (Ser404) reduction (phospho-Tau (Ser404); 10 µM, no heat shock, versus untreated STHdh 7/7): 40%
- Phospho-Tau (Ser404) reduction with autophagy inhibitor (phospho-Tau (Ser404); 10 mM ammonium chloride): could not reduce
- % Number, Peak 1 (A30P mutant α-Synuclein; [2]): 100,0%
- Size, Peak 1 (A30P mutant α-Synuclein; [2]): 86,77 nm
- % Volume, Peak 1 (A30P mutant α-Synuclein; [3]): 36.1%
- % Volume, Peak 2 (A30P mutant α-Synuclein; [3]): 36.3%
- % Volume, Peak 3 (A30P mutant α-Synuclein; [3]): 27.6%
- Size, Peak 1 (A30P mutant α-Synuclein; [3]): 107.0 nm
- Size, Peak 2 (A30P mutant α-Synuclein; [3]): 313.6 nm
- Size, Peak 3 (A30P mutant α-Synuclein; [3]): 3063 nm
- aggregation of oligomers of A30P (A30P mutant α-Synuclein; equimolar Compound 4): induces the formation of aggregates of oligomers of A30P
- mean size, distribution by number (Amyloid-β 1-40 (Ab40); [4]): 141.5 nm
- mean size, distribution by volume (Amyloid-β 1-40 (Ab40); [4]): 208.5 nm
- Size, Peak 1 (Amyloid-β 1-40 (Ab40); by intensity, Buffer2 (MOPS, CaCl2), Ab40 155 µM): 304.8 nm
- % Intensity, Peak 1 (Amyloid-β 1-40 (Ab40); [5]): 55.5%
- % Intensity, Peak 2 (Amyloid-β 1-40 (Ab40); [5]): 33.5%
- % Intensity, Peak 3 (Amyloid-β 1-40 (Ab40); [5]): 6.1%
- Size, Peak 2 (Amyloid-β 1-40 (Ab40); [5]): 77.06 nm
- Size, Peak 3 (Amyloid-β 1-40 (Ab40); [5]): 0.7710 nm
- highest concentration at which no adverse effects were detected (C. elegans): 4 µM
- Blood Brain Barrier Penetrability AUCbrain/AUCplasma (Compound 4): AUCbrain/AUCplasma = 2.27
- penetration of the blood brain area in vivo (intravenous, 1 mg/kg body weight, brain tissue): penetrates the blood brain area
- movement frequency (zebrafish larvae; 1 µM Compound 4 with 500 µM MPP+ (naïve 40.8)): 21.0 movement bouts in 30 minutes
- distance moved (zebrafish larvae; 1, 10 and 20 µM co-incubated with 500 µM MPP+, compared to MPP+): no significant difference
- sleep parameters (sleep fragmentation, sleep ratio, velocity, wake bout duration, sleep bout duration) (zebrafish larvae; co-incubation with MPP+, between groups): No statistically significant difference
- overall movement during assessment of neuroprotection (zebrafish larvae; concentrations ~10 µM and ~1 µM): subtle increase in overall movement
- movement frequency (zebrafish larvae; drug treatment groups compared to MPP+): no significant difference

SMILES: Cc1[nH]c2ccc(C(=O)NCCN(C(C)C)C(C)C)cc2c1C [Compound 22]
- body weight ([1]; 33 mg/kg i.p. QD, R6/2 mice 3 to 12 weeks, versus vehicle treated R6/2 mice): no significant differences
- Body weight loss ([1]; female R6/2 mice at week 12, in comparison to untreated female R6/2 mice): significantly improved
- Body weight loss improvement ([1]; male R6/2 mice at week 12, in comparison to untreated male R6/2 mice): not observed
- rotarod performance (R6/2 mice; female R6/2 mice at 10 weeks of age, normalized to 4-week baseline, versus vehicle): significantly improved
- rotarod performance (R6/2 mice; pooled genders or males, versus vehicle treated R6/2 mice): no significant differences
- mean latency to fall (R6/2 mice; 33 mg/kg intraperitoneal once daily, female R6/2 mice at 10 weeks of age (vehicle 55.7 s)): 108.3 s
- improvement of latency to fall (R6/2 mice; in comparison to untreated model mice, 10 weeks of age): 94%
